Source: US20240018157A1, “CYCLIC COMPOUNDS AND METHODS OF USING SAME” (Schrödinger, Inc., priority 2019, published 2024)

The molecules below were run against full-length MALT1 protein His-MALT1(1-824) (Homo sapiens (Human), UniProt Q9UDY8) (assay: MALT1 protease assay, Assay 2 (1 nM MALT1, Ac-LRSR-AMC substrate)). Conditions: 1 nM MALT1, 50 μM Ac-LRSR-AMC, 2 h pre-incubation, 8 hr incubation at RT.
Sequence of full-length MALT1 protein His-MALT1(1-824) (Q9UDY8 whole entry): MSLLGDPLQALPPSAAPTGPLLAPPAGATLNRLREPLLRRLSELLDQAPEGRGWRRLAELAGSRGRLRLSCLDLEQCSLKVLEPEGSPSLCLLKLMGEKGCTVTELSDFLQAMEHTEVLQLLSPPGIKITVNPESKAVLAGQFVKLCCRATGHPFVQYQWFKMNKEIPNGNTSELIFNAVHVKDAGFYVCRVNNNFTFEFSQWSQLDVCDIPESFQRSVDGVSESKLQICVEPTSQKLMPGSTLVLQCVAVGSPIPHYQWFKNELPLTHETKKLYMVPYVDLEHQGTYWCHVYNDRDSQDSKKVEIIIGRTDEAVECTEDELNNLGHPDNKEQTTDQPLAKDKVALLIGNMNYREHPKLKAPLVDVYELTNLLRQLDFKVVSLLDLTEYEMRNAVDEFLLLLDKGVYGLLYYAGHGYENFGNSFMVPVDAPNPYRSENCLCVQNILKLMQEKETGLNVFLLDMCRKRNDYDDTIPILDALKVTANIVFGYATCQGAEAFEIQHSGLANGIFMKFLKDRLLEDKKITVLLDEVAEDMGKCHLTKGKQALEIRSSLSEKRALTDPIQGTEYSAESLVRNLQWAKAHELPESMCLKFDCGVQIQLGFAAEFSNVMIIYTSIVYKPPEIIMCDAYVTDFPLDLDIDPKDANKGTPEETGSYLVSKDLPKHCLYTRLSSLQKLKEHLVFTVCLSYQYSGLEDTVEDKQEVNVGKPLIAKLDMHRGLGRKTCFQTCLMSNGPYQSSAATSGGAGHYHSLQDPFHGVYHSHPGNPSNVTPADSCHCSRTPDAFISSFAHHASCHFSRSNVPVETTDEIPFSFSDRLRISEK
Assay type: biochemical
Experimental: MALT1 protease activity was assessed in an in vitro assay using a tetrapeptide as substrate and full-length MALT1 protein His-MALT1(1-824) purified from baculovirus-infected insect cells.
The final assay buffer includes 1 nM (Assay 2) or 2 nM (Assay 1) of MALT1 full-length protein, 50 μM Ac-LRSR-AMC substrate, 50 mM Tris pH 7.5, 600 mM Sodium Citrate, 1 mM DTT, 1 mM EDTA, and 0.05% BSA in 384-well plate format using black microtiter square well plates (Optiplate 384-F, Perkin Elmer).
Test compounds were dissolved in 100% DMSO at stock of 10 mM, with final DMSO concentration 0.1%. Test compounds were pre-incubated with MALT1 protein for 2 h at room temperature. Substrate was added after the pre-incubation and fluorescence signal was measured using Envision at excitation 355 nm and emission 460 nm after 8 hr incubation at RT.
The fluorescence units were transformed to percentage of remaining activity by using the high control (HC, median of fluorescence signal from wells containing MALT1 protein, substrate, and DMSO) and low control (LC, median of fluorescence signal from wells with substrate only) with the formula below: […]
IC50 and Hill coefficient were obtained using Graph Pad Prism (Graph Pad software, Inc, USA) with non-linear regression analysis.
Work on `C[C@@]1(C(F)(F)F)CN(C(=O)Nc2cnc(C(=O)N3CCC3)c(C(F)F)c2)c2cnc3cc(Cl)nn3c21` [compound 203, (R)-N-(6-(azetidine-1-carbonyl)-5-(difluoromethyl)pyridin-3-yl)-2-chloro-8-methyl-8-(trifluoromethyl)-7,8-dihydro-6H-pyrazolo[1,5-a]pyrrolo[2,3-e]pyrimidine-6-carboxamide] yielded an IC50 of 100 to 1000 nM.
In the case of `Cc1cn2ccc3c(c2n1)C(C)(C(F)(F)F)CN3C(=O)Nc1cnc(-n2nccn2)c(Cl)c1` (centres unmarked) [compound 193, N-(5-chloro-6(2H-1,2,3-triazol-2-yl)pyridin-3-yl)-2,9-dimethyl-9-(trifluoromethyl)-8,9-dihydro-7H-imidazo[1,2-a]pyrrolo[3,2-c]pyridine-7-carboxamide], the IC50 is reported as 10 to 100 nM.
Work on `CNc1nnc(C(F)(F)F)cc1NC(=O)N1C[C@@](C)(C(F)(F)F)c2c1cnc1cc(Cl)nn21` [compound 112, (R)-2-chloro-8-methyl-N-(3-(methylamino)-6-(trifluoromethyl)pyridazin-4-yl)-8-(trifluoromethyl)-7,8-dihydro-6H-pyrazolo[1,5-a]pyrrolo[2,3-e]pyrimidine-6-carboxamide] yielded an IC50 of 100 to 1000 nM.
Work on `CN1CC(Oc2cc(NC(=O)N3C[C@@](C)(C(F)(F)F)c4c3cnc3cc(Cl)nn43)cn(C(F)F)c2=O)C1` [compound 110, (R)-2-chloro-N-(1-(difluoromethyl)-5-((1-methylazetidin-3-yl)oxy)-6-oxo-1,6-dihydropyridin-3-yl)-8-methyl-8-(trifluoromethyl)-7,8-dihydro-6H-pyrazolo[1,5-a]pyrrolo[2,3-e]pyrimidine-6-carboxamide] yielded an IC50 of 100 to 1000 nM.
`C[C@@]1(C(F)(F)F)CN(C(=O)Nc2cc(C(F)F)nnc2C(N)=O)c2cnc3cc(Cl)nn3c21` [compound 148, (R)-N-(3-carbamoyl-6-(difluoromethyl)pyridazin-4-yl)-2-chloro-8-methyl-8-(trifluoromethyl)-7,8-dihydro-6H-pyrazolo[1,5-a]pyrrolo[2,3-e]pyrimidine-6-carboxamide] was tested, and the IC50 was 100 to 1000 nM.
Molecule `CN1CC(Oc2cc(NC(=O)N3C[C@@](C)(C(F)(F)F)c4c3cnc3cc(Cl)nn43)cc(C(F)F)n2)C1` [compound 130, (R)-2-chloro-N-(2-(difluoromethyl)-6-((1-methylazetidin-3-yl)oxy)pyridin-4-yl)-8-methyl-8-(trifluoromethyl)-7,8-dihydro-6H-pyrazolo[1,5-a]pyrrolo[2,3-e]pyrimidine-6-carboxamide] has an IC50 of 100 to 1000 nM.

The molecules below were run on IL10 secretion, OCI-LY10 cells (assay: Human IL10 secretion assay, Assay 1 (HTRF)). Conditions: 24 h incubation, read-out: IL-10 Secretion IC50 [nM] Assay 1.
Assay type: cell-based
Experimental: IL10 is one of the cytokines that are regulated via activation of NF-kB signaling. For example, in ABC-DLBCL cell lines, the activated NF-kB signaling leads to increased IL10 secretion. Inhibition of NF-kB signaling has been shown leading to decreased IL10 secretion.
Assay 1: OCI-LY10 cells were seeded in IMEM supplemented with 20% fetal bovine serum at 3×10^5 cells per well in 96-well round bottom plates (Corning 3799, Corning), treated with 100 nL of 3-fold serial compound dilutions, starting at 10 mM. The final vehicle concentration was 0.1% DMSO in all wells. After 24 h incubation, the cells were transferred to 96-PCR plates (Axygen: PCR-96-FLT-C) and centrifuged, then 16 μL of cell culture media was transferred to HTRF plates and IL10 levels were measured using human IL-10 Assay Kits (Cisbio) using HTRF format. The signals were transformed to percentage of remaining activity by using the high control (HC, median of signal from wells containing cells treated with DMSO) and low control (LC, median of signal from wells with no cells). IC50 values (nM) were determined using 4-parametric curve-fitting and Hill coefficient were obtained using Graph Pad Prism (Graph Pad software, Inc, USA) with non-linear regression analysis.
Molecule `C[C@@]1(C(F)(F)F)CN(C(=O)Nc2cnc(-n3nccn3)c(C#N)c2)c2cnc3cc(Cl)nn3c21` [compound 41, (R)-2-chloro-N-(5-cyano-6-(2H-1,2,3-triazol-2-yl)pyridin-3-yl)-8-methyl-8-(trifluoromethyl)-7,8-dihydro-6H-pyrazolo[1,5-a]pyrrolo[2,3-e]pyrimidine-6-carboxamide] has an IC50 of 10 to 100 nM.
In the case of `C[C@@]1(C(F)(F)F)CN(C(=O)Nc2cnc(-n3ccnn3)c(C(F)(F)F)c2)c2cnc3cc(Cl)nn3c21` [compound 44, (R)-N-(6-(1H-1,2,3-triazol-1-yl)-5-(trifluoromethyl)pyridin-3-yl)-2-chloro-8-methyl-8-(trifluoromethyl)-7,8-dihydro-6H-pyrazolo[1,5-a]pyrrolo[2,3-e]pyrimidine-6-carboxamide], the IC50 is reported as 10 to 100 nM.
Molecule `COc1cnc(C(F)(F)F)cc1NC(=O)N1C[C@@](C)(C(F)(F)F)c2c1cnc1cc(Cl)nn21` [compound 66, (R)-2-chloro-N-(5-methoxy-2-(trifluoromethyl)pyridin-4-yl)-8-methyl-8-(trifluoromethyl)-7,8-dihydro-6H-pyrazolo[1,5-a]pyrrolo[2,3-e]pyrimidine-6-carboxamide] has an IC50 of 100 to 1000 nM.
In the case of `C[C@@]1(C(F)(F)F)CN(C(=O)Nc2ccnc(C(F)(F)F)c2)c2cnc3cc(Cl)nn3c21` [compound 27, (R)-2-chloro-8-methyl-8-(trifluoromethyl)-N-(2-(trifluoromethyl)pyridin-4-yl)-7,8-dihydro-6H-pyrazolo[1,5-a]pyrrolo[2,3-e]pyrimidine-6-carboxamide], the IC50 is reported as 10 to 100 nM.
Molecule `C[C@@]1(C(F)(F)F)CN(C(=O)Nc2cnc(-n3cc(O)cn3)c(Cl)c2)c2cnc3cc(Cl)nn3c21` [compound 48] has an IC50 of 10 to 100 nM.
With `COc1ccc(NC(=O)N2C[C@@](C)(C(F)(F)F)c3c2cnc2cc(Cl)nn32)cc1Cl` [compound 19, (R)-2-chloro-N-(3-chloro-4-methoxyphenyl)-8-methyl-8-(trifluoromethyl)-7,8-dihydro-6H-pyrazolo[1,5-a]pyrrolo[2,3-e]pyrimidine-6-carboxamide] the IC50 was 100 to 1000 nM.
For `Cc1cc(NC(=O)N2C[C@@](C)(C(F)(F)F)c3c2cnc2cc(Cl)nn32)cnc1-n1nccn1` [compound 21, (R)-2-chloro-8-methyl-N-(5-methyl-6-(2H-1,2,3-triazol-2-yl)pyridin-3-yl)-8-(trifluoromethyl)-7,8-dihydro-6H-pyrazolo[1,5-a]pyrrolo[2,3-e]pyrimidine-6-carboxamide], the IC50 was 10 to 100 nM.
`Cc1cc2ncc3c(n2n1)C(C(F)(F)F)CCN3C(=O)Nc1cnc(-n2nccn2)c(Cl)c1` (centres unmarked) [compound 10, N-(5-chloro-6-(2H-1,2,3-triazol-2-yl)pyridin-3-yl)-2-methyl-9-(trifluoromethyl)-8,9-dihydropyrazolo[1,5-a]pyrido[2,3-e]pyrimidine-6(7H)-carboxamide] was tested, and the IC50 was 100 to 1000 nM.
In the case of `COCc1cnn(-c2ncc(NC(=O)N3C[C@@](C)(C(F)(F)F)c4c3cnc3cc(Cl)nn43)cc2Cl)n1` [compound 79, (R)-2-chloro-N-(5-chloro-6-(4-(methoxymethyl)-2H-1,2,3-triazol-2-yl)pyridin-3-yl)-8-methyl-8-(trifluoromethyl)-7,8-dihydro-6H-pyrazolo[1,5-a]pyrrolo[2,3-e]pyrimidine-6-carboxamide], the IC50 is reported as 10 to 100 nM.
Molecule `C[C@@]1(C(F)(F)F)CN(C(=O)Nc2ccnc(C(F)F)c2)c2cnc3cc(Cl)nn3c21` [compound 60, (R)-2-chloro-N-(2-(difluoromethyl)pyridin-4-yl)-8-methyl-8-(trifluoromethyl)-7,8-dihydro-6H-pyrazolo[1,5-a]pyrrolo[2,3-e]pyrimidine-6-carboxamide] has an IC50 of 10 to 100 nM.
Molecule `COc1ncc(NC(=O)N2C[C@@](C)(C(F)(F)F)c3c2cnc2cc(Cl)nn32)cc1Cl` [compound 18, (R)-2-chloro-N-(5-chloro-6-methoxypyridin-3-yl)-8-methyl-8-(trifluoromethyl)-7,8-dihydro-6H-pyrazolo[1,5-a]pyrrolo[2,3-e]pyrimidine-6-carboxamide] has an IC50 of 10 to 100 nM.
In the case of `C[C@@]1(C(F)(F)F)CN(C(=O)Nc2cnc(-n3ccnn3)c(C(F)F)c2)c2cnc3cc(Cl)nn3c21` [compound 36, (R)-2-chloro-N-(5-(difluoromethyl)-6-(1H-1,2,3-triazol-1-yl)pyridin-3-yl)-8-methyl-8-(trifluoromethyl)-7,8-dihydro-6H-pyrazolo[1,5-a]pyrrolo[2,3-e]pyrimidine-6-carboxamide], the IC50 is reported as 10 to 100 nM.
In the case of `C[C@@]1(C(F)(F)F)CN(C(=O)Nc2cc(N=S(C)(C)=O)nc(C(F)(F)F)c2)c2cnc3cc(Cl)nn3c21` [compound 83], the IC50 is reported as 100 to 1000 nM.
`C[C@@]1(C(F)(F)F)CN(C(=O)Nc2cnc(N=S(C)(C)=O)c(Cl)c2)c2cnc3cc(Cl)nn3c21` [compound 85] showed an IC50 of 100 to 1000 nM.
Molecule `COc1c(Cl)cc(NC(=O)N2C[C@@](C)(C(F)(F)F)c3c2cnc2cc(Cl)nn32)nc1O[C@H]1CCNC1` [compound 63, (R)-2-chloro-N-(4-chloro-5-methoxy-6-(((S)-pyrrolidin-3-yl)oxy)pyridin-2-yl)-8-methyl-8-(trifluoromethyl)-7,8-dihydro-6H-pyrazolo[1,5-a]pyrrolo[2,3-e]pyrimidine-6-carboxamide] has an IC50 of 10 to 100 nM.
With `C[C@@]1(C(F)(F)F)CN(C(=O)Nc2cnc(-n3cc(CO)cn3)c(Cl)c2)c2cnc3cc(Cl)nn3c21` [compound 57, (R)-2-chloro-N-(5-chloro-6-(4-(hydroxymethyl)-1H-pyrazol-1-yl)pyridin-3-yl)-8-methyl-8-(trifluoromethyl)-7,8-dihydro-6H-pyrazolo[1,5-a]pyrrolo[2,3-e]pyrimidine-6-carboxamide] the IC50 was 10 to 100 nM.
In the case of `CC1(C)CCN(C(=O)Nc2cnc(-n3nccn3)c(Cl)c2)c2cnc3cc(Cl)nn3c21` [compound 7, 2-chloro-N-(5-chloro-6-(2H-1,2,3-triazol-2-yl)pyridin-3-yl)-9,9-dimethyl-8,9-dihydropyrazolo[1,5-a]pyrido[2,3-e]pyrimidine-6(7H)-carboxamide], the IC50 is reported as 10 to 100 nM.
